“And” between values parts separate entries of the source, which are not always exact repeats. Equal values may be shown once.
Legend:
Assay in all cases: biochemical
Format in all cases: binding
SfurOBP1 = SfurOBP1 (Sogatella furcifera, UniProt V5T8N5); conditions: for Fluorescence competitive binding assay, fluorescence intensity: OBP1, three replicate columns
Outline: (§1)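 1-NPN displacement assay with odorant competitor at 2–20 µM; protein and probe both 2.0 µM at pH 7.4. Ki is calculated from IC50 using the protein/1-NPN dissociation constant.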

SfurOBP3 = SfurOBP3 (Sogatella furcifera, UniProt V5T818); conditions: for Fluorescence competitive binding assay, fluorescence intensity: OBP3, three replicate columns
Outline: as §1

SfurOBP2 = SfurOBP2 (Sogatella furcifera, UniProt V5T759)
Outline: as §1

SfurOBP11 = SfurOBP11 (Sogatella furcifera, UniProt V5T6E3)
Outline: as §1

Sequence of SfurOBP11 (V5T6E3 entry or part of it): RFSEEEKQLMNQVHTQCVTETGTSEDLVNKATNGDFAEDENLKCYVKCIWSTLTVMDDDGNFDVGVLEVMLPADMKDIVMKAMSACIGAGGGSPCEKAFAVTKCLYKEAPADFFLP
Sequence of SfurOBP3 (V5T818 entry or part of it): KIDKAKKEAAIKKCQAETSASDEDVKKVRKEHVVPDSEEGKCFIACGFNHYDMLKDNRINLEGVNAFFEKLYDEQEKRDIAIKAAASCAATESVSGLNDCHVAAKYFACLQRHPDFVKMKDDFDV
Sequence of SfurOBP1 (V5T8N5 entry or part of it): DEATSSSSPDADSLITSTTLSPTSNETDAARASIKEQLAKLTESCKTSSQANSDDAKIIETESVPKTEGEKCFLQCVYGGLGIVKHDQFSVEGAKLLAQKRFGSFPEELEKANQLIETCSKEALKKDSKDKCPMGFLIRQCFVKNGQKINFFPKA
Sequence of SfurOBP2 (V5T759 entry or part of it): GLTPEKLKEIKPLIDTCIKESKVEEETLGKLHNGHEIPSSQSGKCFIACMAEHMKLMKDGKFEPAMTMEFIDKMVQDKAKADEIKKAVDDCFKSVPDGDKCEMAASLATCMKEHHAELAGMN

Fluorescence competitive binding assay, fluorescence intensity (SfurOBP1; ligand concentration 2 (μM)): 5137 and 5021 and 5229 | Fluorescence competitive binding assay, fluorescence intensity (SfurOBP1; ligand concentration 4 (μM)): 5910 and 6306 and 5547 | Fluorescence competitive binding assay, fluorescence intensity (SfurOBP1; ligand concentration 6 (μM)): 6300 and 6430 and 6367 | Fluorescence competitive binding assay, fluorescence intensity (SfurOBP1; ligand concentration 8 (μM)): 6419 and 6500 and 6466 | Fluorescence competitive binding assay, fluorescence intensity (SfurOBP1; ligand concentration 10 (μM)): 6532 and 6517 and 6502 | Fluorescence competitive binding assay, fluorescence intensity (SfurOBP1; ligand concentration 12 (μM)): 6620 and 6292 and 6471 | Fluorescence competitive binding assay, fluorescence intensity (SfurOBP1; ligand concentration 14 (μM)): 6713 and 6503 and 6353 | Fluorescence competitive binding assay, fluorescence intensity (SfurOBP1; ligand concentration 16 (μM)): 6541 and 6507 and 6533 | Fluorescence competitive binding assay, fluorescence intensity (SfurOBP1; ligand concentration 18 (μM)): 7558 and 7106 and 6654 | Fluorescence competitive binding assay, fluorescence intensity (SfurOBP1; ligand concentration 20 (μM)): 6949 and 7724 and 7337 | IC50 (SfurOBP1; SfurOBP1, protein and 1-NPN both 2.0 µM, competitor 2-20 µM, read-out: IC50): > 20 µM | Fluorescence competitive binding assay, fluorescence intensity (SfurOBP3; ligand concentration 2): 69046 and 56769 and 63691 | Fluorescence competitive binding assay, fluorescence intensity (SfurOBP3; ligand concentration 4): 61024 and 72407 and 63576 | Fluorescence competitive binding assay, fluorescence intensity (SfurOBP3; ligand concentration 6): 62953 and 54664 and 55739 | Fluorescence competitive binding assay, fluorescence intensity (SfurOBP3; ligand concentration 8): 48630 and 46017 and 57385 | Fluorescence competitive binding assay, fluorescence intensity (SfurOBP3; ligand concentration 10): 48455 and 41384 and 49192 | Fluorescence competitive binding assay, fluorescence intensity (SfurOBP3; ligand concentration 12): 44417 and 51591 and 51023 | Fluorescence competitive binding assay, fluorescence intensity (SfurOBP3; ligand concentration 14): 42917 and 40156 and 40042 | Fluorescence competitive binding assay, fluorescence intensity (SfurOBP3; ligand concentration 16): 37264 and 50015 and 45340 | Fluorescence competitive binding assay, fluorescence intensity (SfurOBP3; ligand concentration 18): 66503 and 59244 and 47400 | Fluorescence competitive binding assay, fluorescence intensity (SfurOBP3; ligand concentration 20): 55843 and 55740 and 43544 | IC50 (SfurOBP3; SfurOBP3, protein and 1-NPN both 2.0 µM, competitor 2-20 µM, read-out: IC50): > 20 µM | IC50 (SfurOBP2; SfurOBP2, protein and 1-NPN both 2.0 µM, competitor 2-20 µM, read-out: IC50): 17.4 µM | Fluorescence competitive binding assay, OBP2 (raw fluorescence reading) (SfurOBP2; ligand concentration 2 (unit not given), replicate column 1 of 3): 13495 | Fluorescence competitive binding assay, OBP2 (raw fluorescence reading) (SfurOBP2; ligand concentration 2 (unit not given), replicate column 2 of 3): 16165 | Fluorescence competitive binding assay, OBP2 (raw fluorescence reading) (SfurOBP2; ligand concentration 2 (unit not given), replicate column 3 of 3): 17504 | Fluorescence competitive binding assay, OBP2 (raw fluorescence reading) (SfurOBP2; ligand concentration 4 (unit not given), replicate column 1 of 3): 14292 | Fluorescence competitive binding assay, OBP2 (raw fluorescence reading) (SfurOBP2; ligand concentration 4 (unit not given), replicate column 2 of 3): 14770 | Fluorescence competitive binding assay, OBP2 (raw fluorescence reading) (SfurOBP2; ligand concentration 4 (unit not given), replicate column 3 of 3): 18258 | Fluorescence competitive binding assay, OBP2 (raw fluorescence reading) (SfurOBP2; ligand concentration 6 (unit not given), replicate column 1 of 3): 13188 | Fluorescence competitive binding assay, OBP2 (raw fluorescence reading) (SfurOBP2; ligand concentration 6 (unit not given), replicate column 2 of 3): 14373 | Fluorescence competitive binding assay, OBP2 (raw fluorescence reading) (SfurOBP2; ligand concentration 6 (unit not given), replicate column 3 of 3): 14976 | Fluorescence competitive binding assay, OBP2 (raw fluorescence reading) (SfurOBP2; ligand concentration 8 (unit not given), replicate column 1 of 3): 12682 | Fluorescence competitive binding assay, OBP2 (raw fluorescence reading) (SfurOBP2; ligand concentration 8 (unit not given), replicate column 2 of 3): 13401 | Fluorescence competitive binding assay, OBP2 (raw fluorescence reading) (SfurOBP2; ligand concentration 8 (unit not given), replicate column 3 of 3): 14572 | Fluorescence competitive binding assay, OBP2 (raw fluorescence reading) (SfurOBP2; ligand concentration 10 (unit not given), replicate column 1 of 3): 12390 | Fluorescence competitive binding assay, OBP2 (raw fluorescence reading) (SfurOBP2; ligand concentration 10 (unit not given), replicate column 2 of 3): 12956 | Fluorescence competitive binding assay, OBP2 (raw fluorescence reading) (SfurOBP2; ligand concentration 10 (unit not given), replicate column 3 of 3): 13308 | Fluorescence competitive binding assay, OBP2 (raw fluorescence reading) (SfurOBP2; ligand concentration 12 (unit not given), replicate column 1 of 3): 11320 | Fluorescence competitive binding assay, OBP2 (raw fluorescence reading) (SfurOBP2; ligand concentration 12 (unit not given), replicate column 2 of 3): 12682 | Fluorescence competitive binding assay, OBP2 (raw fluorescence reading) (SfurOBP2; ligand concentration 12 (unit not given), replicate column 3 of 3): 13112 | Fluorescence competitive binding assay, OBP2 (raw fluorescence reading) (SfurOBP2; ligand concentration 14 (unit not given), replicate column 1 of 3): 11586 | Fluorescence competitive binding assay, OBP2 (raw fluorescence reading) (SfurOBP2; ligand concentration 14 (unit not given), replicate column 2 of 3): 11754 | Fluorescence competitive binding assay, OBP2 (raw fluorescence reading) (SfurOBP2; ligand concentration 14 (unit not given), replicate column 3 of 3): 12906 | Fluorescence competitive binding assay, OBP2 (raw fluorescence reading) (SfurOBP2; ligand concentration 16 (unit not given), replicate column 1 of 3): 10605 | Fluorescence competitive binding assay, OBP2 (raw fluorescence reading) (SfurOBP2; ligand concentration 16 (unit not given), replicate column 2 of 3): 10448 | Fluorescence competitive binding assay, OBP2 (raw fluorescence reading) (SfurOBP2; ligand concentration 16 (unit not given), replicate column 3 of 3): 11282 | Fluorescence competitive binding assay, OBP2 (raw fluorescence reading) (SfurOBP2; ligand concentration 18 (unit not given), replicate column 1 of 3): 14498 | Fluorescence competitive binding assay, OBP2 (raw fluorescence reading) (SfurOBP2; ligand concentration 18 (unit not given), replicate column 2 of 3): 14899 | Fluorescence competitive binding assay, OBP2 (raw fluorescence reading) (SfurOBP2; ligand concentration 18 (unit not given), replicate column 3 of 3): 13250 | Fluorescence competitive binding assay, OBP2 (raw fluorescence reading) (SfurOBP2; ligand concentration 20 (unit not given), replicate column 1 of 3): 13545 | Fluorescence competitive binding assay, OBP2 (raw fluorescence reading) (SfurOBP2; ligand concentration 20 (unit not given), replicate column 2 of 3): 12591 | Fluorescence competitive binding assay, OBP2 (raw fluorescence reading) (SfurOBP2; ligand concentration 20 (unit not given), replicate column 3 of 3): 11415 | IC50 (SfurOBP11; SfurOBP11, protein and 1-NPN both 2.0 µM, competitor 2-20 µM, read-out: IC50): > 20 µM | Fluorescence intensity, fluorescence competitive binding assay, OBP11 (SfurOBP11; ligand concentration 2, replicate 1): 21809 | Fluorescence intensity, fluorescence competitive binding assay, OBP11 (SfurOBP11; ligand concentration 2, replicate 2): 24436 | Fluorescence intensity, fluorescence competitive binding assay, OBP11 (SfurOBP11; ligand concentration 2, replicate 3): 21028 | Fluorescence intensity, fluorescence competitive binding assay, OBP11 (SfurOBP11; ligand concentration 4, replicate 1): 21555 | Fluorescence intensity, fluorescence competitive binding assay, OBP11 (SfurOBP11; ligand concentration 4, replicate 2): 21532 | Fluorescence intensity, fluorescence competitive binding assay, OBP11 (SfurOBP11; ligand concentration 4, replicate 3): 20733 | Fluorescence intensity, fluorescence competitive binding assay, OBP11 (SfurOBP11; ligand concentration 6, replicate 1): 20973 | Fluorescence intensity, fluorescence competitive binding assay, OBP11 (SfurOBP11; ligand concentration 6, replicate 2): 20501 | Fluorescence intensity, fluorescence competitive binding assay, OBP11 (SfurOBP11; ligand concentration 6, replicate 3): 20737 | Fluorescence intensity, fluorescence competitive binding assay, OBP11 (SfurOBP11; ligand concentration 8, replicate 1): 20324 | Fluorescence intensity, fluorescence competitive binding assay, OBP11 (SfurOBP11; ligand concentration 8, replicate 2): 20139 | Fluorescence intensity, fluorescence competitive binding assay, OBP11 (SfurOBP11; ligand concentration 8, replicate 3): 20508 | Fluorescence intensity, fluorescence competitive binding assay, OBP11 (SfurOBP11; ligand concentration 10, replicate 1): 20121 | Fluorescence intensity, fluorescence competitive binding assay, OBP11 (SfurOBP11; ligand concentration 10, replicate 2): 20422 | Fluorescence intensity, fluorescence competitive binding assay, OBP11 (SfurOBP11; ligand concentration 10, replicate 3): 20353 | Fluorescence intensity, fluorescence competitive binding assay, OBP11 (SfurOBP11; ligand concentration 12, replicate 1): 19850 | Fluorescence intensity, fluorescence competitive binding assay, OBP11 (SfurOBP11; ligand concentration 12, replicate 2): 19980 | Fluorescence intensity, fluorescence competitive binding assay, OBP11 (SfurOBP11; ligand concentration 12, replicate 3): 19737 | Fluorescence intensity, fluorescence competitive binding assay, OBP11 (SfurOBP11; ligand concentration 14, replicate 1): 21701 | Fluorescence intensity, fluorescence competitive binding assay, OBP11 (SfurOBP11; ligand concentration 14, replicate 2): 22333 | Fluorescence intensity, fluorescence competitive binding assay, OBP11 (SfurOBP11; ligand concentration 14, replicate 3): 21069 | Fluorescence intensity, fluorescence competitive binding assay, OBP11 (SfurOBP11; ligand concentration 16, replicate 1): 21665 | Fluorescence intensity, fluorescence competitive binding assay, OBP11 (SfurOBP11; ligand concentration 16, replicate 2): 22169 | Fluorescence intensity, fluorescence competitive binding assay, OBP11 (SfurOBP11; ligand concentration 16, replicate 3): 22138 | Fluorescence intensity, fluorescence competitive binding assay, OBP11 (SfurOBP11; ligand concentration 18, replicate 1): 22525 | Fluorescence intensity, fluorescence competitive binding assay, OBP11 (SfurOBP11; ligand concentration 18, replicate 2): 23830 | Fluorescence intensity, fluorescence competitive binding assay, OBP11 (SfurOBP11; ligand concentration 18, replicate 3): 23178 | Fluorescence intensity, fluorescence competitive binding assay, OBP11 (SfurOBP11; ligand concentration 20, replicate 1): 23218 | Fluorescence intensity, fluorescence competitive binding assay, OBP11 (SfurOBP11; ligand concentration 20, replicate 2): 23600 | Fluorescence intensity, fluorescence competitive binding assay, OBP11 (SfurOBP11; ligand concentration 20, replicate 3): 23432
SMILES: CCCCCCCCCCCCCCCC [n-hexadecane]

Source: article PMC6409085, “Three odorant-binding proteins are involved in the behavioral response of Sogatella furcifera to rice plant volatiles” (PeerJ, 2019)
